Source: ChEMBL document CHEMBL1151696 (Bioorg Med Chem, 2008)
Activity calls are given as the source filed them. The rule behind the calls is not given here.

Columns and labels:
[1] = system: Human alphaherpesvirus 2; type: functional, organism-based
[2] = molecular target: Glutamate NMDA receptor; assay: (§1) Antagonist activity at NMDA receptor in cerebellar granule neurons assessed as inhibition of glutamate-induced increase in intracellular calcium concentration by fluorometric assay; type: functional, cell-based
[3] = system: Mammalian orthoreovirus 1; type: functional, organism-based
[4] = system: Punta Toro virus; type: functional, organism-based
[5] = system: Coxsackievirus B4; type: functional, organism-based
[6] = system: Sindbis virus; type: functional, organism-based
[7] = molecular target: Glutamate NMDA receptor; assay: (§2) Antagonist activity at NMDA receptor in cerebellar granule neurons assessed as inhibition of NMDA-induced increase in intracellular calcium concentration by fluorometric assay; type: functional, cell-based
[8] = system: Respiratory syncytial virus; type: functional, organism-based
[9] = system: Vesicular stomatitis virus; type: functional, organism-based
[10] = system: Human respirovirus 3; type: functional, organism-based
[11] = system: Human alphaherpesvirus 1; type: functional, organism-based
[12] = system: Trypanosoma brucei; assay: Trypanocidal activity against Trypanosoma brucei 427 blood stream at 5 ug/ml after 48 hrs by hemocytometer; type: functional, organism-based
[13] = species on record: Rattus norvegicus; assay: Inhibition of [3H]dopamine uptake in Wistar rat striatum synaptosomes at 100 uM by scintillation spectrometry; type: functional, subcellular; parameters: scale not given: the % may be the effect or the level left
[14] = system: Feline coronavirus; type: functional, organism-based
[15] = system: Influenza A virus H3N2; type: functional, organism-based, Influenza A virus (A/Hong Kong/7/1987(H3N2)); conditions: MDCK
[16] = system: Influenza B virus; type: functional, organism-based; conditions: B/Hong Kong/05/1972, MDCK
[17] = Cytotoxicity against MDCK cells by MTS assay; type: cell-based, Canis lupus familiaris; conditions: dog
[18] = system: Influenza A virus; assay: microbe, parasite or virus in culture; conditions: A/Puerto Rico/8/1934(H1N1), MDCK
[19] = molecular target: T1, Glutamate NMDA receptor (Rattus norvegicus) (UniProt P35439+Q00959+Q00960+Q00961+Q62645+Q8VHN2+Q9R1M7); assay: as §1; type: functional, cell-based
[20] = molecular target: T1, Glutamate NMDA receptor (Rattus norvegicus); assay: as §2; type: functional, cell-based
[21] = system: Trypanosoma brucei; assay: Trypanocidal activity against Trypanosoma brucei 427 blood stream after 48 hrs by hemocytometer; type: functional, organism-based; conditions: Trypanosoma brucei, 427, 48 h

| Compound | Activity [1] | IC50 [2] [µM] | Activity [3] | Activity [4] | Activity [5] | Activity [6] | IC50 [7] [µM] | Activity [8] | Activity [9] | Activity [10] | Activity [11] | Activity [13] [%] | Activity [14] | EC50 [15] [µM] | Activity [16] | MCC [17] [µM] | further results |
| --- | --- | --- | --- | --- | --- | --- | --- | --- | --- | --- | --- | --- | --- | --- | --- | --- | --- |
| CN(C)C12CC3(C)CC1CC3(C)C2 | inactive | 185 | inactive | inactive | inactive | inactive | 153 | inactive | inactive | inactive | inactive | 75.2 | inactive |  |  |  | Activity [12]: inactive |
| CC12CC3CC1(C)CC3(CN)C2 | inactive | > 500 | inactive | inactive | inactive | inactive | 128 | inactive | inactive | inactive | inactive | 39.1 | inactive |  |  |  | Activity [12]: inactive |
| NC12CC3CC(CC1C3)C2 |  | > 500 |  |  |  |  | 92 |  |  |  |  | 84.9 |  | 26.5 | inactive | > 575 | EC50 [18]: 196 µM |
| CC12CC3CC1(C)CC3(N(Cc1ccccc1)Cc1ccccc1)C2 | inactive |  | inactive | inactive | inactive | inactive |  | inactive | inactive | inactive | inactive | 74.3 | inactive |  |  |  | Activity [19]: inactive; Activity [20]: inactive |
| CN(Cc1ccccc1)CC12CC3(C)CC1CC3(C)C2 | inactive |  | inactive | inactive | inactive | inactive | 160 | inactive | inactive | inactive | inactive |  | inactive |  |  |  | Activity [19]: inactive |
| CC12CC3CC1(C)CC3(CNCc1ccccc1)C2 | inactive |  | inactive | inactive | inactive | inactive | 47 | inactive | inactive | inactive | inactive |  | inactive |  |  |  | Activity [19]: inactive; Activity [12]: inactive |
| CC(N)C12CC3CC(CC(C3)C1)C2 (stereo unspecified) [RIMANTADINE] |  |  |  |  |  |  |  |  |  |  |  |  |  | 0.85 | inactive | > 100 | IC90 [21]: 14 µM |
| NCC12CC3CC(CC1C3)C2 | inactive | > 200 | inactive | inactive | inactive | inactive | > 200 | inactive | inactive | inactive | inactive | 50.1 | inactive | 52 | inactive | > 530 | EC50 [18]: 36 µM |
| NC12CC3CC(CC(C3)C1)C2 [AMANTADINE] |  |  |  |  |  |  |  |  |  |  |  | 47.4 |  | 2.7 | inactive | > 100 | IC50 [21]: > 130 µM; EC50 [18]: 77 µM |
| CNCC12CC3CC(CC1C3)C2 | inactive | > 500 | inactive | inactive | inactive | inactive | 71 | inactive | inactive | inactive | inactive | 76.3 | inactive |  |  |  |  |
| CC(N)C12CC3(C)CC1CC3(C)C2 (stereo unspecified) | inactive | 94 | inactive | inactive | inactive | inactive | 37 | inactive | inactive | inactive | inactive | 72.2 | inactive |  |  |  | IC50 [21]: 6.02 µM; IC90 [21]: 9.48 µM |
| c1ccc(CNC23CC4CC(CC2C4)C3)cc1 | inactive | > 200 | inactive | inactive | inactive | inactive | > 200 | inactive | inactive | inactive | inactive | 31.7 | inactive |  |  |  |  |
